The source of these data is patent publication US6677310B1, “Ring-expanded nucleosides and nucleotides” (Nabi, priority 1999, dated 2004).

≈ marks a conversion by molar mass, not a printed value. Where two headings read alike, the source gives them in different places.

One data set concerns the target T1, rabbit liver guanase (Oryctolagus cuniculus, UniProt G1T386).
T1 construct: employing rabbit liver guanase; from tissue; host or cells: rabbit liver
T1 sequence (G1T386 1-454): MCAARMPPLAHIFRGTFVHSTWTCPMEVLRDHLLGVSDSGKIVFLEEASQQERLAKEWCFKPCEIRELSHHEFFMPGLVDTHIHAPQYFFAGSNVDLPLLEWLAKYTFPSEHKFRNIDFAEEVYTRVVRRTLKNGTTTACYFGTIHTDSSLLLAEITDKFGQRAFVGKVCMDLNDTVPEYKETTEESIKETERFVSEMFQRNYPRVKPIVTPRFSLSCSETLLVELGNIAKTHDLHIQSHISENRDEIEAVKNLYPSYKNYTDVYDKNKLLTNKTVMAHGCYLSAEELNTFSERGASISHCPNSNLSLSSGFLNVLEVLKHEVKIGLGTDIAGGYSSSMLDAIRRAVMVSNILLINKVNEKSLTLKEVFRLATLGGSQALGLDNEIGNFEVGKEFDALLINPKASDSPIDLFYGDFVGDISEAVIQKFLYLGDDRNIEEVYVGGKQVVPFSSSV
The experiment in a line: Inhibition of guanase (Examples 10 and 11). In kind it is biochemical. To be noted: Lineweaver-Burk plot; for Ki: Tris buffer pH 7.6, 21° C., substrate guanine. An excerpt: The concentration of the inhibitor ranged from 4×10^−5 M to 8×10^−5 M (Example 7), and 4.4×10^−5 M to 8.9×10^−5 M (Example 8). The concentration of the enzyme used for each assay was 0.0082 units/mL.

The nature of data set [1]: Cell proliferation assay, rapidly growing HFF cells. The format is cell-based. To be noted: human, rapidly growing human foreskin fibroblast (HFF) cells; for IC50 at 72 h: rapidly growing HFF cells, read-out: Cytotoxicity (IC50), HFF Cells. Here is the method: The toxicity of Compounds 14-1 and 14-2 was also measured in rapidly growing human foreskin fibroblast (HFF) cells and Daudi cells by cell proliferation assay (National Institute of Allergy and Infectious Diseases (NIAID), NIH, Bethesda, Md.). According to the assay method, the appropriate cells were seeded in six-well plates in MEM containing 10% FBS. Twenty four hours later, the cells were treated with several dilutions of the test compounds covering a range of 0.03-100 μg/ml. The plates were incubated in a CO2 incubator at 37° C. for 72h. The cells were washed after removing the media and subsequently released from the plate wells by the addition of 1 ml of 0.25% trypsin. The contents in the wells were mixed, diluted with Isotone III and counted using a Coulter counter. The CC50 values (concentration of compound giving 50% inhibition of cell proliferation) were calculated by linear regression analysis. Toxicity of Compound 14-1 was also evaluated in bone marrow precursor cells by previously published procedure (Sommadossi, J.-P., et al., Biochem. Pharmacol., 44:1921-1925, 1992).
(A) Cell Proliferation Assay: Twenty-four hours prior to assay, cells (HFF or Daudi) were seeded in six-well plates at a concentration of 2.5×10^4 cells per well in MEM containing 10% FBS. On the day of the assay, drugs were diluted serially in MEM containing 10% FBS at increments of 1:5 covering a range from […]. For drugs that had to be solubilized in DMSO, control wells receive MEM containing 10% DMSO. The media from the wells was then aspirated, and 2 mL of each drug concentration was added to each well. The cells were incubated in a CO2 incubator at 37° C. for 72 h. At the end of this time, the media-drug solution was removed, and the cells were washed. Trypsin-EDTA (0.25%, 1 mL) was added to each well and incubated until the cells started to come off the plate. The cell-media mixture was then pipeted up and down vigorously to break up the cell suspension and 0.2 mL of the mixture added to 9.8 mL of Isoton III and the cells were counted using a Coulter Counter. Each sample was counted three times with two replicate wells per sample. The IC50 values were calculated using a computer program.

Data set [2] in a line: Neutral red uptake assay, stationary HFF cells. In kind it is cell-based. To be noted: human, read-out: Cytotoxicity (IC50), Neutral Red Uptake. Here is the method: (B) Neutral Red Uptake Assay: Twenty-four hours prior to assay, HFF cells were plated into 96-well plates at a concentration of 2.5×10^4 cells/well. After 24 h, the media was aspirated, and […] of media containing drug was added to the first row of wells and then diluted serially 1:5 using the automated Cetus Liquid Handling System. The plates were then incubated in a Co2 incubator at 37° C. for 7 days. At this time the media/drug was removed, cells were washed, 200 μL/well of 0.01% neutral red in PBS was added, and the mixture was incubated for 1 h. The dye was removed, and the cells were washed using a Nunc Plate Washer. After the wash was removed, […] of 50% ethanol/1% aqueous acetic acid was added. The plates were placed on a rotating shaker for 15 min, and the optical densities were then read at 540 nm using a plate reader.
Data Analysis: Dose-response relationships were constructed by linearly regressing the percent inhibition of parameters derived in the preceding sections against log drug concentrations. Fifty-percent inhibitory (IC50) concentrations were calculated from the regression lines.

In another data set the test system is HCMV. The experiment in a line: Cytopathic effect (CPE) inhibition assay, CMV in HFF cells. The conditions noted are these: for EC50: Human betaherpesvirus 5, HFF, 336 h, read-out: Antiviral Activity (EC50), anti-HCMV; for SI (Selectivity Index), Neutral Red Uptake: IC50 (neutral red, stationary HFF) divided by anti-HCMV EC50; for SI (Selectivity Index), HFF Cells: IC50 (rapidly growing HFF) divided by anti-HCMV EC50.

A further data set concerns Hepatitis B virus (HBV). Put plainly: Anti-HBV assay in 2.2.15 cells (virion DNA, HBV RI). The format is cell-based. To be noted: 9 days; for EC90: 10 fold inhibition. The method, then:
The anti-HBV assays were performed according to the published protocol of Korba and Milman, (Korba, B. E.; Milman, G. Antiviral Res., 15, 217 1991), using cultures of 2.2.15 cells. In brief, the assay consisted of (a) seeding the chronically HBV-producing human liver cells (Acs et al. Proc. Nat. Acad. Sci., 84, 464 1987) into 24-well tissue culture plates, and growing to confluence, (b) adding test compounds daily for a continuous 9-day period, harvesting culture media after day 9 and (c) lysing treated cells 24 hours following day 9 of treatment for the analysis of extracellular virion DNA and intracellular HBV genomic forms.
Anti-HBV activity and the toxicity against confluent 2.2.15 cells were determined by the previously described procedure (Korba, B. E., et al. Antivir. Res., 19:55-70, 1992; Korba, B. E., et al. Antivir. Res., 15:217-228, 1991). Briefly, confluent cultures of HBV transfected 2.2.15 cells were maintained on either 96-well or 24-well flat-bottomed tissue culture plates in RPMI 1640 medium with 2% fetal bovine serum (FBS). The cells were treated with test compounds daily for nine consecutive days. The culture media were harvested on day 9 to quantify the amount of virion DNA. On day 10, the cells were lysed to quantify the amount of intracellular HBV replicative intermediates (RI). The quantification of virion DNA and the HBV RI were done by blot hybridization methods (Korba, B. E., et al. Antivir. Res., 19:55-70, 1992; Korba, B. E., et al. Antivir. Res., 15:217-228, 1991). Cellular toxicity against separate cultures of confluent 2.2.15 cells was measured after treatment with the compounds for nine days under identical culture conditions as those used for the antiviral assay (Korba, B. E., et al. Antivir. Res., 19:55-70, 1992). Uptake of neutral red dye by treated cells was compared with dye uptake by untreated control cells (Korba, B. E., et al. Antivir. Res., 19:55-70, 1992).

What is called melting point is the temperature of the solid-liquid transition. The Ki is a measure of affinity in units of concentration, obtained from inhibition or displacement. High values mean weaker binding, low ones tighter binding. In general, IC50 refers to the concentration needed to halve the response being measured. By EC50 is commonly meant the concentration that produces a half-maximal response. A word on the CC50: it is the concentration giving 50% cytotoxicity. Low values mean harm at low concentration, high ones better tolerance by the cells. As usually defined, the EC90 is the concentration at which the effect reaches the 90% level.

Method for HCMV: Cytopathic Effect (CPE) Inhibition Assay: Low passage HFF cells were seeded into 96-well tissue culture plates 24 h prior to use at a cell concentration of 2.5×10^5 cells/mL in 0.1 mL of MEM supplemented with 10% FBS. The cells were incubated for 24 h at 37° C. in a CO2 incubator. After incubation, the medium was removed, and 100 μL of MEM containing 2% FBS was added to all but the first row. In the first row, 125 μL of experimental drug was added in triplicate wells. Medium alone was added to both cell and virus control wells. The drug in the first row of wells was then diluted serially 1:5 throughout the remaining wells by transferring 25 μL using the Cetus Liquid Handling Machine. After a 1 h incubation, 100 μL of the appropriate virus concentration was added to each well, excluding cell control wells which received 100 μL of MEM. The virus concentration added was 2500 pfu per well. The plates were then incubated at 37° C. in a CO2 incubator for 14 days. An additional 50 μL of MEM was added on day 7. After the incubation period, media was aspirated, and the cells were stained with a 5% crystal violet/ethanol/formaldehyde solution for 4 h. The stain was then removed, and the plates were rinsed with tap water until all excess stain was removed. The plates were allowed to dry for 24 h and then read on a Bio-Tek Instruments Microplate reader at 630 nm.

With `N=c1nc(N)c2nc[nH]c2c(N)n1` [Example 1, 4,8-Diamino-6-imino-1H-imidazo[4,5-e][1,3]diazepine], the melting point is greater than 220 °C.
With `COC(=O)C1(N)NC(=O)c2[nH]cnc2NC1=O` (stereo not shown) [Example 7, 6-Amino-6-methoxycarbonyl-4,5,7,8-tetrahydro-6H-imidazo[4,5-e]-[1,4]diazepine-5,8-dione], on rabbit liver guanase, the “mode of inhibition of guanase” value is “competitive inhibitors” and the Ki was 190000 nM.
`O=C1c2nc(Br)n(Cc3ccccc3)c2N(Cc2ccccc2)C(=O)CN1Cc1ccccc1` [Compound 19, 3,4,7-Tribenzyl-2-bromo-4,5,7,8-tetrahydro-6H-imidazo [4,5-e][1,4]diazepine-5,8-dione] gave a melting point of 174 to 176 °C. Further, in data set [1], the IC50 at 72 h came out at 56.5 µg/mL (≈ 110 µM). The IC50 at 7 days in data set [2] is 88.1 µg/mL (≈ 171 µM). Also, in the data set on HCMV, the EC50 worked out at 8.1 µg/mL (≈ 15.7 µM); the “SI (Selectivity Index), Neutral Red Uptake” value is reported as 10.9; the “SI (Selectivity Index), HFF Cells” value is recorded as 6.98.
Regarding `Nc1nc(O)c2ncn(COC(CO)CO)c2n1` [Ganciclovir, reference compound], the CC50 at 72 h in data set [1] (Rapidly growing HFF cells) is greater than 40 µg/mL. In addition, in data set [1], the IC50 at 72 h worked out at 40 µg/mL (≈ 157 µM). Moreover, the IC50 at 7 days in data set [2] was greater than 100 µg/mL. Further, in the data set with HCMV, the EC50 was 0.05 µg/mL (≈ 0.196 µM); the “SI (Selectivity Index), Neutral Red Uptake” value is greater than 2000; the “SI (Selectivity Index), HFF Cells” value was 800.
`Nc1ccn([C@H]2CS[C@@H](CO)O2)c(=O)n1` [Compound 3TC, 2′,3′-dideoxy-L-3′-thiacytidine, reference compound]: the EC90 was found to be 198 ± 20 nM in the data set on Hepatitis B virus (HBV) (extracellular HBV virion DNA, read-out: EC90 Virion) and 922 ± 85 nM with Hepatitis B virus (HBV) (intracellular HBV DNA replicative intermediates, read-out: EC90 HBV RI). Moreover, the EC50 in the data set with Hepatitis B virus (HBV) (extracellular HBV virion DNA, read-out: EC50 Virion) is 65 ± 10 nM; with Hepatitis B virus (HBV) (intracellular HBV DNA replicative intermediates, read-out: EC50 HBV RI), 172 ± 19 nM.
Turning to `N=c1nc(N)c2ncn(Cc3ccccc3)c2c(N)n1` [Example 3, 4,8-Diamino-1-benzyl-6-iminoimidazo[4,5-e][1,3]diazepine], the melting point was 202 to 204 °C.
Regarding `COC(=O)C1(OC)NC(=O)c2[nH]cnc2NC1=O` (stereo not shown) [Example 8, 6-Methoxy-6-methoxycarbonyl-4,5,7,8-tetrahydro-6H-imidazo[4,5-e][1,4]-diazepine-5,8-dione], at rabbit liver guanase, the “mode of inhibition of guanase” value was “competitive inhibitors” and the affinity corresponds to a Ki of 540000 nM.
